From PubChem BioAssay AID743430 (The Scripps Research Institute Molecular Screening Center, 2014)
Calls of active or inactive are those of the source. No rule for the calls is given here.

Target: Sphingosine 1-phosphate receptor 4 (Homo sapiens) (UniProt O95977)
Assay: agonism at human S1PR4 – cell-based, FRET, dose response, counter-screen for S1PR3 antagonist project, late-stage follow-up (AID 743430)
Settings: S1P4-expressing cells, FRET reporter, agonist mode

Chain of Sphingosine 1-phosphate receptor 4 (Homo sapiens) (O95977 whole entry, looked up): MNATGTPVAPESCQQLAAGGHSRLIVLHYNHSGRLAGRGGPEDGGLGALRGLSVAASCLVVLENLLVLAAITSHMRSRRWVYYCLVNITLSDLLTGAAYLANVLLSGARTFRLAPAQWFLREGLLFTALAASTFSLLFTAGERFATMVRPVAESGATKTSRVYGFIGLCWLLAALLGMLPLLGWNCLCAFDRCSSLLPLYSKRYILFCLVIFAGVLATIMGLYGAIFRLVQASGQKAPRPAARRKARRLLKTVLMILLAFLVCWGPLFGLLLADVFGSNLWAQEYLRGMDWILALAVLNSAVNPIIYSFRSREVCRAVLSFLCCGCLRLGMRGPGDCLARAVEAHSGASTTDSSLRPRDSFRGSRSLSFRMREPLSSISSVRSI

| Compound | EC50 |
| --- | --- |
| O=C(NC(c1ccc(Cl)cc1)c1nc(-c2ccccc2)no1)c1ccc(Cl)c(Br)c1 (configuration not stated) | > 50 µM (inactive) |
| O=C(NC(c1ccccc1)c1nc(-c2ccccc2)no1)c1cccc(Cl)n1 (configuration not stated) | > 50 µM (inactive) |
| O=C(NC(Cc1ccccc1)c1nc(-c2ccccc2)no1)c1cccc(Cl)c1 (configuration not stated) | > 50 µM (inactive) |
| O=C(NC(c1nc(-c2ccccc2)no1)C1CCCCC1)c1ccc(Cl)c(Cl)c1 (configuration not stated) | > 50 µM (inactive) |
| COc1ccc(C(=O)NC(c2ccccc2)c2nc(-c3ccccc3)no2)cc1 (configuration not stated) | > 50 µM (inactive) |
| O=C(NC(c1ccc(Cl)cc1)c1nc(-c2ccccc2)no1)c1cccc(Br)c1 (configuration not stated) | > 50 µM (inactive) |
| O=C(NC(c1ccccc1)c1nc(-c2ccccc2)no1)c1cccc(Br)c1 (configuration not stated) | inactive |
| N#Cc1ccc(C(=O)NC(c2ccc(Cl)c(Cl)c2)c2nc(-c3ccccc3)no2)cc1 (configuration not stated) | > 50 µM (inactive) |
| O=C(NC(c1ccc(Cl)c(Cl)c1)c1nc(-c2ccccc2)no1)c1ccc(Cl)cc1 (configuration not stated) | > 50 µM (inactive) |
| O=C(NC(c1ccccc1)c1nc(-c2ccccc2)no1)c1ccc(Cl)cc1 (configuration not stated) | > 50 µM (inactive) |
| O=C(NC(c1nc(-c2ccccc2)no1)C1CCOCC1)c1ccc(Cl)c(Cl)c1 (configuration not stated) | > 50 µM (inactive) |
| O=C(NC(c1ccc(Br)cc1)c1nc(-c2ccccc2)no1)c1ccc(Cl)c(Cl)c1 (configuration not stated) | > 50 µM (inactive) |
| O=C(NC(c1ccc(Cl)cc1)c1nc(-c2ccccc2)no1)c1ccc(Cl)c(Cl)c1 (configuration not stated) | > 50 µM (inactive) |
| O=C(NC(c1ccc(Cl)cc1)c1nc(-c2ccccn2)no1)c1cccc(Cl)c1 (configuration not stated) | > 50 µM (inactive) |
| O=C(c1cccc(Cl)c1)N(CCO)C(c1ccc(Cl)c(Cl)c1)c1nc(-c2ccccc2)no1 (configuration not stated) | > 50 µM (inactive) |
| O=C(NC(c1ccc(Cl)c(Cl)c1)c1nc(-c2ccccc2)no1)c1ccc(Cl)c(Cl)c1 (configuration not stated) | > 50 µM (inactive) |
| Cc1ccc(C(=O)NC(c2ccccc2)c2nc(-c3ccccc3)no2)cc1 (configuration not stated) | > 50 µM (inactive) |

Now from value to compound:

| EC50 | Compound |
| --- | --- |
| > 50 µM (inactive) | O=C(NC(c1cccc(Cl)c1)c1nc(-c2ccccc2)no1)c1cc(Cl)cc(Cl)c1 (configuration not stated) |
| > 50 µM (inactive) | O=C(NC(c1ccc(Cl)cc1)c1nc(-c2ccccc2)no1)c1cccc(Cl)c1 (configuration not stated) |
| > 50 µM (inactive) | Cc1ccc(C(NC(=O)c2cccc(Cl)c2)c2nc(-c3ccccc3)no2)cc1 (configuration not stated) |
| > 50 µM (inactive) | O=C(NC(c1ccc(Cl)c(Cl)c1)c1nc(-c2ccccc2)no1)c1cccc(Cl)c1 (configuration not stated) |
| > 50 µM (inactive) | O=C(NC(c1ccccc1)c1nc(-c2ccccc2)no1)c1cccc(Cl)c1 (configuration not stated) |
| > 50 µM (inactive) | O=C(NC(c1ccc(Cl)c(Cl)c1)c1nc(-c2ccccc2)no1)c1ccccc1 (configuration not stated) |
| > 50 µM (inactive) | O=C(NC(c1ccc(Cl)cc1)c1nc(-c2cccc(Cl)c2)no1)c1cccc(Cl)c1 (configuration not stated) |
| > 50 µM (inactive) | O=C(NC(c1cccc(Cl)c1)c1nc(-c2ccccc2)no1)c1ccc(Cl)c(Cl)c1 (configuration not stated) |
| > 50 µM (inactive) | O=C(NC(c1cccc(Cl)c1)c1nc(-c2ccccc2)no1)c1cccc(Cl)c1 (configuration not stated) |
| > 50 µM (inactive) | CCc1ccc(C(NC(=O)c2cccc(Cl)c2)c2nc(-c3ccccc3)no2)cc1 (configuration not stated) |
